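These data come from cells grown in 96-well plates and exposed to compound for 48 hours at five concentrations. GI50: concentration for 50% inhibition of growth.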 The source made the active and inactive calls. No stated cut-off is given here; in the data, active = GI50 up to about 1.1 µM and inactive = higher.
How the values were obtained:
Test in all cases: DTP human tumour cell line panel, 48 h
RXF 631 = tested on: RXF 631
M19-MEL = tested on: M19-MEL
LXFL 529 = tested on: LXFL 529
KM-20L2 = tested on: KM-20L2
SNB-78 = tested on: SNB-78
DMS-273 = tested on: DMS-273
DMS-114 = tested on: DMS-114
HOP-18 = tested on: HOP-18
XF498 = tested on: XF498

Structure (SMILES) | GI50 (RXF 631) | GI50 (M19-MEL) | GI50 (LXFL 529) | GI50 (KM-20L2) | GI50 (SNB-78) | GI50 (DMS-273) | GI50 (DMS-114) | GI50 (HOP-18) | GI50 (XF498)
CC1OC(n2cc(F)c(=O)[nH]c2=O)CCC1=O (stereo not drawn) | 39.9 µM (inactive) | > 100 µM (inactive) | > 100 µM (inactive) | 96.6 µM (inactive) | > 100 µM (inactive) | 62.5 µM (inactive) | > 100 µM (inactive) | 65.2 µM (inactive) | –
CN(C)C(=Nc1nc(N(C)C)s[s+]1)N(C)C | > 100 µM (inactive) | > 100 µM (inactive) | > 100 µM (inactive) | > 100 µM (inactive) | – | > 100 µM (inactive) | > 100 µM (inactive) | > 100 µM (inactive) | > 100 µM (inactive)
CCCCOP1(=O)C=C(C)C(=C(Cl)Cl)C(C)=C1 (stereo not drawn) | 16.9 µM (inactive) | 11.5 µM (inactive) | – | 2.31 µM (inactive) | 0.925 µM (active) | 3.63 µM (inactive) | 3.48 µM (inactive) | 22.7 µM (inactive) | 13.6 µM (inactive)
CC1(C)COC2(OC1)C1=NS(=O)(=O)CC13CCC2C3(C)C (stereo not drawn) | > 100 µM (inactive) | > 100 µM (inactive) | > 100 µM (inactive) | > 100 µM (inactive) | > 100 µM (inactive) | > 100 µM (inactive) | > 100 µM (inactive) | > 100 µM (inactive) | > 100 µM (inactive)
CCCCCCCCCCCCNC1(C)CNCCCNCCNCCCNC1 | 1.93 µM (inactive) | 1.72 µM (inactive) | 1.67 µM (inactive) | 1.66 µM (inactive) | 1.82 µM (inactive) | 0.475 µM (active) | – | 1.68 µM (inactive) | 1.93 µM (inactive)
CCOc1ccc(NC(=O)CC2Sc3ccccc3NC2=O)cc1 (stereo not drawn) | – | > 100 µM (inactive) | > 100 µM (inactive) | > 100 µM (inactive) | 57.1 µM (inactive) | 33.4 µM (inactive) | > 100 µM (inactive) | 20.5 µM (inactive) | –
OC1(C23CC4CC(CC(C4)C2)C3)CSCC1(O)C12CC3CC(CC(C3)C1)C2 (stereo not drawn) | > 100 µM (inactive) | 64.6 µM (inactive) | > 100 µM (inactive) | – | > 100 µM (inactive) | > 100 µM (inactive) | > 100 µM (inactive) | – | > 100 µM (inactive)
COC(=O)/C(=C/CC(N=C(c1ccccc1)c1ccccc1)C(=O)OC)N=C(c1ccccc1)c1ccccc1 (stereo not drawn) | – | > 100 µM (inactive) | > 100 µM (inactive) | – | – | > 100 µM (inactive) | 15.1 µM (inactive) | – | > 100 µM (inactive)
Cn1nc2ccccc2cc1=O | > 100 µM (inactive) | > 100 µM (inactive) | – | > 100 µM (inactive) | > 100 µM (inactive) | > 100 µM (inactive) | > 100 µM (inactive) | > 100 µM (inactive) | > 100 µM (inactive)
CCOC(=O)c1cc(/C=C/C(C)=C/C(=O)OC)oc1-c1ccccc1 | – | > 100 µM (inactive) | – | 81.5 µM (inactive) | – | 92.5 µM (inactive) | 63.5 µM (inactive) | 42.9 µM (inactive) | > 100 µM (inactive)
COc1ccc(/C(=N/NC(N)=O)C(c2ccc(OC)cc2)C2C(=O)Oc3ccccc32)cc1 (stereo not drawn) | > 100 µM (inactive) | > 100 µM (inactive) | > 100 µM (inactive) | > 100 µM (inactive) | > 100 µM (inactive) | > 100 µM (inactive) | > 100 µM (inactive) | – | > 100 µM (inactive)
N#CC1=C(c2ccccc2)NN(Cc2ccccc2)C(c2ccc(Cl)cc2)CC1=O (stereo not drawn) | 28.1 µM (inactive) | – | 20.4 µM (inactive) | 20.8 µM (inactive) | 99.3 µM (inactive) | 21.4 µM (inactive) | 32.3 µM (inactive) | 17 µM (inactive) | 15 µM (inactive)
COC(=O)c1sc(C(=O)OC)c2c1CSC2 | > 100 µM (inactive) | > 100 µM (inactive) | > 100 µM (inactive) | > 100 µM (inactive) | 49.3 µM (inactive) | > 100 µM (inactive) | > 85.5 µM (inactive) | > 100 µM (inactive) | 34.7 µM (inactive)
O=C1C=C(Nc2ccccc2C(=O)CC(=O)C(=O)Nc2cccc([N+](=O)[O-])c2)c2ccccc2C1=O | > 100 µM (inactive) | 4.45 µM (inactive) | 32.4 µM (inactive) | > 100 µM (inactive) | 49.1 µM (inactive) | 31.1 µM (inactive) | 18.5 µM (inactive) | – | 19.6 µM (inactive)
CC(=O)Nc1ccc(-c2nnc(SCC(=O)Nc3ccc(Cl)cc3Cl)o2)cc1 | – | 51.9 µM (inactive) | 19.3 µM (inactive) | 42.7 µM (inactive) | > 100 µM (inactive) | 39.5 µM (inactive) | 15.7 µM (inactive) | 55.3 µM (inactive) | –
CC#CC1C(OC(=O)c2ccccc2)CCCC1(CI)N=[N+]=[N-] (stereo not drawn) | – | 48.5 µM (inactive) | 36.4 µM (inactive) | 60.7 µM (inactive) | > 100 µM (inactive) | 38.7 µM (inactive) | 25.1 µM (inactive) | > 100 µM (inactive) | 20.1 µM (inactive)
Cc1nc(C(N)=S)sc1C(=O)/C=C/c1cccc(O)c1 | > 100 µM (inactive) | > 100 µM (inactive) | – | > 100 µM (inactive) | > 100 µM (inactive) | > 100 µM (inactive) | 68.1 µM (inactive) | > 100 µM (inactive) | –
CSc1nc(NC2OC(COC(C)=O)C(OC(C)=O)C(OC(C)=O)C2OC(C)=O)c2c(n1)OCC2=O (stereo not drawn) | > 100 µM (inactive) | > 100 µM (inactive) | > 100 µM (inactive) | > 100 µM (inactive) | > 100 µM (inactive) | – | > 100 µM (inactive) | > 100 µM (inactive) | –
COC(OC)c1cc2c(cc1C(=O)[C@@]13CCC[C@@H]1NC(=O)O3)OCO2 | – | > 100 µM (inactive) | – | – | > 100 µM (inactive) | > 100 µM (inactive) | > 100 µM (inactive) | – | 84.5 µM (inactive)
Cc1ccc2[nH]c3c(C)c4c(c(C)c3c2c1)CN(C)C=C4 | 0.931 µM (active) | – | 0.377 µM (active) | 2.18 µM (inactive) | 0.738 µM (active) | 1.04 µM (active) | – | 7.46 µM (inactive) | 1.25 µM (inactive)
CC1(C)CCC[C@@]2(C)C1CC[C@H]1CC(O)C3(C)CCC12C3 (stereo partly drawn) | 19.1 µM (inactive) | 21.1 µM (inactive) | 17.2 µM (inactive) | 18.9 µM (inactive) | 17.2 µM (inactive) | – | 17.3 µM (inactive) | – | 17.4 µM (inactive)
O=C1NCCS(=O)(=O)N[C@@H](CC2=CC=CCC2)C(=O)N2CCCC12 (stereo partly drawn) | > 100 µM (inactive) | > 100 µM (inactive) | > 100 µM (inactive) | > 100 µM (inactive) | > 100 µM (inactive) | > 100 µM (inactive) | > 100 µM (inactive) | > 100 µM (inactive) | > 100 µM (inactive)
N#CCC(=O)N/N=C(\CCN1CCCC1)CC(c1ccccc1)c1c(O)c2ccccc2oc1=O (stereo not drawn) | > 100 µM (inactive) | 78.7 µM (inactive) | > 100 µM (inactive) | > 100 µM (inactive) | – | – | – | > 100 µM (inactive) | > 100 µM (inactive)
c1ccc2[nH]c(CNc3ccc(C4C[Se]N=N4)cc3)nc2c1 (stereo not drawn) | – | 41.3 µM (inactive) | 18.7 µM (inactive) | – | – | 67.1 µM (inactive) | 21.8 µM (inactive) | > 100 µM (inactive) | –
O=C(O)CC[C@H](NC(=O)c1ccc(-n2nc3ccc(=O)cc-3[nH]c2=O)cc1)C(=O)O | > 100 µM (inactive) | > 100 µM (inactive) | > 100 µM (inactive) | > 100 µM (inactive) | > 100 µM (inactive) | > 100 µM (inactive) | > 100 µM (inactive) | > 100 µM (inactive) | –
